Values of other authors as cited in US20100111883A1, “CYCLODEXTRIN FORMULATIONS” (priority 2007, published 2010).

Assays:
[1] = HPBCD alone, through the skin; stated as typical

skin penetration [1]: about 0.1%
water solubility: freely water soluble
SMILES: CC(O)COC[C@H]1O[C@@H]2O[C@H]3[C@H](O)[C@@H](O)[C@@H](O[C@H]4[C@H](O)[C@@H](O)[C@@H](O[C@H]5[C@H](O)[C@@H](O)[C@@H](O[C@H]6[C@H](O)[C@@H](O)[C@@H](O[C@H]7[C@H](O)[C@@H](O)[C@@H](O[C@H]8[C@H](O)[C@@H](O)[C@@H](O[C@H]1[C@H](O)[C@H]2O)O[C@@H]8COCC(C)O)O[C@@H]7COCC(C)O)O[C@@H]6COCC(C)O)O[C@@H]5COCC(C)O)O[C@@H]4COCC(C)O)O[C@@H]3COCC(C)O (stereo partly drawn) [HPBCD, β-cyclodextrin, 2-hydroxypropyl ether]
